Data on 53 molecules can be found in patent publication US9951046B2, “TRPA1 modulators” (Algomedix, Inc., priority 2014, dated 2018).

The structures appear in SMILES notation. Read-outs that look alike come from different tables or passages of the source.

The target in the assay is T1, human TRPA1 (Homo sapiens, UniProt O75762).
T1 construct: expressed in transfected cells
Description: Cell-based functional intracellular calcium ([Ca2+]i) assay, Fluo-4/Fluo-8, FlexStation, challenge with reference TRPA1 agonist (FFA, AITC or 4-HNE). As to the method:
A stable HEK293 cell line that expresses human TRPA1 in an inducible manner was employed in this assay. […] The expression of TRPA1 was induced by including 1 μg/ml doxycycline in the culture medium. For the induced cells, ruthenium red (5 μM) was also added to minimize the constitutive TRPA1 channel activity and cells were used 14-18 hrs after induction. To measure [Ca^2+]i changes, cells were seeded in wells of 96-well plates at ˜100,000 cells/well and grown for 14-18 hrs to reach confluency. To prevent cell loss from subsequent washing, the wells were treated with 20 μg/ml polyornithine (MW>30,000, Sigma, St Louis, Mo.) for >15 min and rinsed once with Hank's balanced salt solution without Mg^2+ and Ca^2+. […] In some experiments, Fluo-8-AM was used instead of Fluo-4-AM as the calcium-sensitive fluorescent probe. Probenecid (2 mM) was included in all solutions to prevent the leakage of Fluo-4 or Fluo-8 from the cells. At the end of the incubation, cells were washed three times with ECS and placed in 80 μL of the same solution. Fluorescence changes were measured using a fluid handling integrated fluorescence plate reader, FlexStation (Molecular Devices, Sunnyvale, Calif.). Stock solutions of test compounds were initially solubilized in 100% DMSO and then serially diluted to achieve the desired final concentration. […] Drugs were diluted into ECS at 2× or 3× the desired final concentrations and delivered to the sample plate by an integrated robotic 8-channel pipettor at preprogrammed time points. […] Experiments were performed at 20-25° C. For certain experiments, 0.1% BSA was included with the cells and test compounds.
The kinetic data obtained at each test concentration of drug represents a series of fluorescent intensities as a function of time.
Using a sequential addition protocol, test compounds were initially applied to the cells loaded with Fluo-4 or Fluo-8 and fluorescence changes in each well monitored for 2.5 min. The plate was read again in a kinetic mode after a 15-30 min incubation with the test compounds after obtaining baseline values (about 30 s) and subsequent addition of challenge with a reference TRPA1 agonist. Reference TRPA1 agonists in testing each compound included at least one of flufenamic acid (FFA), allyl isothiocyanate (AITC) and 4-hydroxynonenal (4-HNE).
Antagonist activity can be expressed in terms of IC50 with respect to TRPA1 and agonist activity can be expressed in terms of EC50 with respect to TRPA1.
In general terms: Calcium flux is commonly read through the fluorescence of an indicator in the cells.

[1] abbreviates: HEK293 cells expressing human TRPA1, IC50 class after addition of reference TRPA1 agonist (FFA, AITC or 4-HNE), read-out: human TRPA1-HEK Activity.

T1 sequence (O75762 whole entry): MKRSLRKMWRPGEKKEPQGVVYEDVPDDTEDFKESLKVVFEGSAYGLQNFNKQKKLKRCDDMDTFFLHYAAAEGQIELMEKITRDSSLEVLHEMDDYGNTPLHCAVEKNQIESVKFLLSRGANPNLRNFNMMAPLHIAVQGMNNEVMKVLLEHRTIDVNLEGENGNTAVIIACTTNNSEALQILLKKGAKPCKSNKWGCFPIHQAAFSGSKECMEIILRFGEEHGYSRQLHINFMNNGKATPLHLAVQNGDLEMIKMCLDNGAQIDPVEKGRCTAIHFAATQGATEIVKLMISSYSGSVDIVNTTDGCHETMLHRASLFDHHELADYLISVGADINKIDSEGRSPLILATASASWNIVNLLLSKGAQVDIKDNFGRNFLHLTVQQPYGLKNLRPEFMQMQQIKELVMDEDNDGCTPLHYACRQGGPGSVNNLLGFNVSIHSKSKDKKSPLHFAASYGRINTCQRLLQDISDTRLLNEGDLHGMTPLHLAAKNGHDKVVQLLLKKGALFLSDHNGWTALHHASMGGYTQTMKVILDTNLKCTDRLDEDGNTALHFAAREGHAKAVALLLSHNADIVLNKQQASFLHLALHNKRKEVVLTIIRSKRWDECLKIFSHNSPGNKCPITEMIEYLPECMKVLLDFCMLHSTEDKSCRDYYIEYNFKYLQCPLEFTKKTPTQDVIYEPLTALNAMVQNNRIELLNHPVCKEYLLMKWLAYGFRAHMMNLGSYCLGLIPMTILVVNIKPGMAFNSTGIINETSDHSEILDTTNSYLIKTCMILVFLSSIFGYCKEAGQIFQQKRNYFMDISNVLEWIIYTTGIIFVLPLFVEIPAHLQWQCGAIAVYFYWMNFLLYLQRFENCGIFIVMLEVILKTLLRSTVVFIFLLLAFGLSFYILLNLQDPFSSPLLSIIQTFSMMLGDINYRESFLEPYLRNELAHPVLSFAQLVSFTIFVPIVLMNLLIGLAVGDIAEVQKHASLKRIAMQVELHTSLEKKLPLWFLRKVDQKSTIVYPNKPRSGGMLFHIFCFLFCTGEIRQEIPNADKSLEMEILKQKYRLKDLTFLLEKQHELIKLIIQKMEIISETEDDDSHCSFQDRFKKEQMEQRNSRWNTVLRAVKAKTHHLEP

Regarding `O=C(c1cc(-c2ccncc2)n(-c2ccc(F)c(F)c2)n1)N1CCN2C(=O)OC[C@@H]2C1` [Compound 94], the IC50 under setting [1] is above 25 µM.
Turning to `O=C(c1cc(-c2ccncc2)n(-c2ccc(F)c(F)c2)n1)N1CCC2(CC1)NCN(c1ccccc1)C2=O` [Compound 95], under setting [1], the IC50 is above 25 µM.
On to `CCCC1COC2(CCN(C(=O)c3cc(-c4ccncc4)n(-c4ccc(F)c(F)c4)n3)CC2)O1` (centres unmarked) [Compound 96], for which the IC50 is above 25 µM.
Take `CN1C(=O)NC2(CCN(C(=O)c3cc(-c4ccncc4)n(-c4ccc(F)c(F)c4)n3)CC2)C1=O` [Compound 97]: under setting [1], the IC50 was above 25 µM.
As to `O=C(c1cc(-c2ccncc2)n(-c2ccc(C(F)(F)F)c(F)c2)n1)N1CCC(N2C(=O)Cc3ccccc32)CC1` [Compound 98], the IC50 was 5 to 25 µM.
Turning to `O=C(c1cc(-c2ccncc2)n(-c2ccc(C(F)(F)F)c(F)c2)n1)N1CCC2(CC1)C(=O)NCN2c1ccc(F)cc1` [Compound 99], the IC50 under setting [1] fell in the range of 0.001 to 5 µM.
On the same count and under the same terms, for `O=C(c1cc(-c2ccncc2)n(-c2ccc(C(F)(F)F)c(F)c2)n1)N1CCC2(CC1)OCc1ccccc12` [Compound 101] the value was above 25 µM; for `O=C1OC2(CCN(C(=O)c3cc(-c4ccncc4)n(-c4ccc(C(F)(F)F)c(F)c4)n3)CC2)c2ccccc21` [Compound 102], above 25 µM; for `O=C1OC2(CCN(C(=O)c3cc(-c4ccncc4)n(-c4ccc(C(F)(F)F)c(F)c4)n3)CC2)c2ccc(Cl)cc21` [Compound 103], above 25 µM.
As for `O=C(c1cc(-c2ccncc2)n(-c2ccc(C(F)(F)F)c(F)c2)n1)N1CC(=O)N2CCc3ccccc3C2C1` (centres unmarked) [Compound 104], the IC50 under setting [1] was above 25 µM.
Still for that read-out and setting: for `Cn1c(=O)n(C2CCN(C(=O)c3cc(-c4ccncc4)n(-c4ccc(C(F)(F)F)c(F)c4)n3)CC2)c2ccccc21` [Compound 105] the value was above 25 µM; for `O=C(c1cc(-c2ccncc2)n(-c2ccc(C(F)(F)F)c(F)c2)n1)N1CCC(N2C(=O)OC[C@H]2c2ccccc2)CC1` [Compound 106], above 25 µM; for `O=C(c1cc(-c2ccncc2)n(-c2ccc(C(F)(F)F)c(F)c2)n1)N1CCC2(CC1)SCCS2` [Compound 107], above 25 µM.
Same read-out and setting: to `O=C(c1cc(-c2ccncc2)n(-c2ccc(C(F)(F)F)c(F)c2)n1)N1CCC(c2nc3ccccc3o2)CC1` [Compound 108] belongs above 25 µM; to `O=C(Nc1ccc2c(c1)OC(F)(F)O2)c1cc(-c2ccncc2)n(-c2ccc(C(F)(F)F)c(F)c2)n1` [Compound 109], above 25 µM; to `CN1C(=O)COc2cc(NC(=O)c3cc(-c4ccncc4)n(-c4ccc(C(F)(F)F)c(F)c4)n3)ccc21` [Compound 110], above 25 µM.
The same measure, in the same setting: to `O=C1CSC2(CCN(C(=O)c3cc(-c4ccncc4)n(-c4ccc(C(F)(F)F)c(F)c4)n3)CC2)N1` [Compound 111] belongs above 25 µM.
Take `Cn1c(=O)c(=O)n(C)c2cc(NC(=O)c3cc(-c4ccncc4)n(-c4ccc(C(F)(F)F)c(F)c4)n3)ccc21` [Compound 112]: under setting [1], the IC50 was above 25 µM.
The same measure, in the same setting: for `O=C(Nc1ccc2c(c1)COC2=O)c1cc(-c2ccncc2)n(-c2ccc(C(F)(F)F)c(F)c2)n1` [Compound 113] the value was above 25 µM.
For the molecule `CC1COC2(CCN(C(=O)c3cc(-c4ccncc4)n(-c4ccc(C(F)(F)F)c(F)c4)n3)CC2)O1` (centres unmarked) [Compound 114], the IC50 was above 25 µM.
On to `O=C(c1cc(-c2ccncc2)n(-c2ccc(C(F)(F)F)c(F)c2)n1)N1CCN2C(=O)OC[C@@H]2C1` [Compound 115], for which the IC50 under setting [1] was above 25 µM.
With `CCCC1COC2(CCN(C(=O)c3cc(-c4ccncc4)n(-c4ccc(C(F)(F)F)c(F)c4)n3)CC2)O1` (centres unmarked) [Compound 117], the IC50 was above 25 µM.
Take `CN1C(=O)NC2(CCN(C(=O)c3cc(-c4ccncc4)n(-c4ccc(C(F)(F)F)c(F)c4)n3)CC2)C1=O` [Compound 118]: under setting [1], the IC50 is above 25 µM.
Consider `O=C(c1cc(-c2ccncc2)n(-c2ccc(C(F)(F)F)nc2)n1)N1CCC(N2C(=O)Cc3ccccc32)CC1` [Compound 119], for which the IC50 is above 25 µM.
Consider `O=C(c1cc(-c2ccncc2)n(-c2ccc(C(F)(F)F)nc2)n1)N1CCC2(CC1)C(=O)NCN2c1ccc(F)cc1` [Compound 120], for which, under setting [1], the IC50 is 5 to 25 µM.
On the same count and under the same terms, for `O=C(c1cc(-c2ccncc2)n(-c2ccc(C(F)(F)F)nc2)n1)N1CCC2(CC1)C(=O)NCN2c1ccc(Cl)cc1` [Compound 121] the value was above 25 µM; for `O=C(c1cc(-c2ccncc2)n(-c2ccc(C(F)(F)F)nc2)n1)N1CCC2(CC1)OCc1ccccc12` [Compound 122], above 25 µM; for `O=C1OC2(CCN(C(=O)c3cc(-c4ccncc4)n(-c4ccc(C(F)(F)F)nc4)n3)CC2)c2ccccc21` [Compound 123], above 25 µM.
The same measure, in the same setting: to `O=C1OC2(CCN(C(=O)c3cc(-c4ccncc4)n(-c4ccc(C(F)(F)F)nc4)n3)CC2)c2ccc(Cl)cc21` [Compound 124] belongs above 25 µM; to `O=C(c1cc(-c2ccncc2)n(-c2ccc(C(F)(F)F)nc2)n1)N1CC(=O)N2CCc3ccccc3C2C1` (centres unmarked) [Compound 125], above 25 µM.
Still for that read-out and setting: to `Cn1c(=O)n(C2CCN(C(=O)c3cc(-c4ccncc4)n(-c4ccc(C(F)(F)F)nc4)n3)CC2)c2ccccc21` [Compound 126] belongs above 25 µM.
On to `O=C(c1cc(-c2ccncc2)n(-c2ccc(C(F)(F)F)nc2)n1)N1CCC(N2C(=O)OC[C@H]2c2ccccc2)CC1` [Compound 127], for which, under setting [1], the IC50 was above 25 µM.
Same read-out and setting: for `O=C(c1cc(-c2ccncc2)n(-c2ccc(C(F)(F)F)nc2)n1)N1CCC2(CC1)SCCS2` [Compound 128] the value was above 25 µM; for `O=C(c1cc(-c2ccncc2)n(-c2cnccn2)n1)N1CCC(c2nc3ccccc3o2)CC1` [Compound 129], above 25 µM; for `O=C(Nc1ccc2c(c1)OC(F)(F)O2)c1cc(-c2ccncc2)n(-c2cnccn2)n1` [Compound 130], 5 to 25 µM.
Still for that read-out and setting: to `CN1C(=O)COc2cc(NC(=O)c3cc(-c4ccncc4)n(-c4cnccn4)n3)ccc21` [Compound 131] belongs above 25 µM; to `Cn1c(=O)c(=O)n(C)c2cc(NC(=O)c3cc(-c4ccncc4)n(-c4cnccn4)n3)ccc21` [Compound 133], above 25 µM; to `O=C(Nc1ccc2c(c1)COC2=O)c1cc(-c2ccncc2)n(-c2cnccn2)n1` [Compound 134], above 25 µM.
On to `CC1COC2(CCN(C(=O)c3cc(-c4ccncc4)n(-c4cnccn4)n3)CC2)O1` (centres unmarked) [Compound 135], for which the IC50 is above 25 µM.
For the molecule `O=C(c1cc(-c2ccncc2)n(-c2cnccn2)n1)N1CCN2C(=O)OC[C@@H]2C1` [Compound 136], the IC50 under setting [1] lay within 5 to 25 µM.
On to `O=C(c1cc(-c2ccncc2)n(-c2cnccn2)n1)N1CCC2(CC1)NCN(c1ccccc1)C2=O` [Compound 137], for which, under setting [1], the IC50 was above 25 µM.
Take `CCCC1COC2(CCN(C(=O)c3cc(-c4ccncc4)n(-c4cnccn4)n3)CC2)O1` (centres unmarked) [Compound 138]: the IC50 was above 25 µM.
Take `CN1C(=O)NC2(CCN(C(=O)c3cc(-c4ccncc4)n(-c4cnccn4)n3)CC2)C1=O` [Compound 139]: the IC50 under setting [1] is above 25 µM.
The same measure, in the same setting: for `O=C(c1cc(-c2ccncc2)n(-c2cc(F)c(F)c(F)c2)n1)N1CCC2(CC1)C(=O)NCN2c1ccccc1` [Compound 140] the value was 5 to 25 µM.
The same measure, in the same setting: to `O=C(c1cc(-c2ccncc2)n(-c2cc(F)c(F)c(F)c2)n1)N1CCC(n2c(=O)[nH]c3ccccc32)CC1` [Compound 141] belongs 5 to 25 µM.
On to `O=C(c1cc(-c2ccncc2)n(-c2cc(F)c(F)c(F)c2)n1)N1CCC2(CC1)OCCO2` [Compound 142], for which the IC50 is above 25 µM.
Regarding `O=C(c1cc(-c2ccncc2)n(-c2ccc(C(F)(F)F)cc2)n1)N1CCC2(CC1)C(=O)NCN2c1ccccc1` [Compound 143], under setting [1], the IC50 was 5 to 25 µM.
On the same count and under the same terms, to `O=C(c1cc(-c2ccncc2)n(-c2ccc(C(F)(F)F)cc2)n1)N1CCC(n2c(=O)[nH]c3ccccc32)CC1` [Compound 144] belongs 5 to 25 µM.
In the case of `O=C(c1cc(-c2ccncc2)n(-c2ccc(C(F)(F)F)cc2)n1)N1CCC2(CC1)OCCO2` [Compound 145], the IC50 lay within 5 to 25 µM.
In the case of `O=C(c1cc(-c2ccncc2)n(-c2cccc(C(F)(F)F)c2)n1)N1CCC2(CC1)C(=O)NCN2c1ccccc1` [Compound 146], the IC50 under setting [1] fell in the range of 5 to 25 µM.
Still for that read-out and setting: for `O=C(c1cc(-c2ccncc2)n(-c2cccc(C(F)(F)F)c2)n1)N1CCC(n2c(=O)[nH]c3ccccc32)CC1` [Compound 147] the value was above 25 µM.
Turning to `O=C(c1cc(-c2ccncc2)n(-c2cccc(C(F)(F)F)c2)n1)N1CCC2(CC1)OCCO2` [Compound 148], the IC50 is above 25 µM.
Regarding `O=C(c1cc(-c2ccncc2)n(-c2ccc(F)c(F)c2)n1)N1CCC2(CC1)C(=O)NCN2c1ccccc1` [Compound 149], the IC50 under setting [1] lay within 5 to 25 µM.
